According to patent US20250230147A1, “LACTAMS AS CBL-B INHIBITORS” (Genentech, Inc., priority 2021, published 2025):
pIC50: −log10 of the molar value. Counter-ions that a name gives are not always drawn.

Experiments:
[1] = biological target: Cbl-b (Homo sapiens (Human), UniProt Q13191); test: Cbl-b LCK Ub TR-FRET assay (Cbl-b Lck HTRF); format: biochemical
Method in brief: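 Biotin-Cbl-b preincubated with compound (10-point 3-fold series) 60 min, then His-LCK with 1 mM ATP (2× mixture) added for 90 min at room temperature. Ubiquitination detected by TR-FRET using HA-ubiquitin/UBE2D2 adduct, anti-HA-D2 and streptavidin-Eu; IC50 normalised to no-LCK and DMSO controls.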

[2] = biological target: c-Cbl (Homo sapiens (Human), UniProt P22681); test: C-Cbl LCK Ub TR-FRET assay (c-cbl Lck HTRF); format: biochemical; details: for (fold-selectivity): C-cbl Lck HTRF IC50 relative to Cbl-b Lck HTRF IC50
Sequence of c-Cbl (P22681 47-435): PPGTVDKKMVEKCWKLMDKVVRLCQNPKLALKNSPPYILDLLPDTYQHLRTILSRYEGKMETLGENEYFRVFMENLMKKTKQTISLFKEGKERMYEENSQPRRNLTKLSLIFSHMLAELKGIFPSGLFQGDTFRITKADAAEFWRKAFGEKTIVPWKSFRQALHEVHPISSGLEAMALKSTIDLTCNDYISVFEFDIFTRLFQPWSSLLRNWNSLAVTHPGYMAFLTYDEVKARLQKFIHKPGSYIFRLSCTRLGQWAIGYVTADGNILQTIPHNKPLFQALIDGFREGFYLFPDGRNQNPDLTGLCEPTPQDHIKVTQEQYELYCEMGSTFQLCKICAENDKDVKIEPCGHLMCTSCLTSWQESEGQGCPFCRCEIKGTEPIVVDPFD
Method in brief: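 Signal is read once the detection mix has stood 20 min at ambient temperature. Curves are anchored by DMSO as maximum and by omission of LCK as minimum.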

Sequence of Cbl-b (Q13191 40-426): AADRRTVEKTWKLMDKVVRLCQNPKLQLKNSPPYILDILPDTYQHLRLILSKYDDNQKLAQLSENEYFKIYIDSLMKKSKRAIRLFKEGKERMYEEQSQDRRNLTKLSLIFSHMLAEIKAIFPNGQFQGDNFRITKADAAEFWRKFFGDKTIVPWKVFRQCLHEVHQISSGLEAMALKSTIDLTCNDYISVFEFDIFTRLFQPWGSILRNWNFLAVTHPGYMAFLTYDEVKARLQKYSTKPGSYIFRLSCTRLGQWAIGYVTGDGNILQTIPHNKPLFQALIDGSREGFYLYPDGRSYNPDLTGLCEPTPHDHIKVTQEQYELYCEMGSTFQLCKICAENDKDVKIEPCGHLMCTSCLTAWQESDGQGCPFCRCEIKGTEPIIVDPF

SMILES | pIC50 [1] | pIC50 [2] | (fold-selectivity) [2]
Cn1cnnc1[C@H](F)C1(c2cccc(N3Cc4c(cc(CN5CC6(CCO6)C5)cc4C(F)(F)F)C3=O)c2)COC1 [Compound 139, (R)-6-(1-oxa-6-azaspiro[3.3]heptan-6-ylmethyl)-2-(3-(3-(fluoro(4-methyl-4H-1,2,4-triazol-3-yl)methyl)oxetan-3-yl)phenyl)-4-(trifluoromethyl)isoindolin-1-one] | 6.64 | 6.19 | 2.8x
CC(C)[C@H]1CN(C)CCN1Cc1cc2c(c(C(F)(F)F)c1)CN(c1cccc([C@]3([C@@H](F)c4nncn4C)CCO3)c1)C2=O (single isomer, unassigned) [Compound 261] | 6.85 | 6.82 | (1.1x)
Cn1cnnc1CC1(c2cc(OC3CCCC3)cc(N3Cc4c(cc(CNC5(C)CCC5)cc4C(F)(F)F)C3=O)c2)CC(F)(F)C1 [Compound 478, 2-(3-(cyclopentyloxy)-5-(3,3-difluoro-1-((4-methyl-4H-1,2,4-triazol-3-yl)methyl)cyclobutyl)phenyl)-6-(((1-methylcyclobutyl)amino)methyl)-4-(trifluoromethyl)isoindolin-1-one] | 7.09 | 6.80 | (2.0x)
Cn1cnnc1[C@H](F)[C@@](C)(F)c1cccc(N2Cc3c(cc(CN4CC(C)(F)C4)cc3C(F)(F)F)C2=O)c1 [Compound 33, 2-(3-((1 S,2S)-1,2-difluoro-1-(4-methyl-4H-1,2,4-triazol-3-yl)propan-2-yl)phenyl)-6-((3-fluoro-3-methylazetidin-1-yl)methyl)-4-(trifluoromethyl)isoindolin-1-one] | 6.05 | 5.72 | 2.1x
CC(C)[C@H]1CN(C)CCN1Cc1cc2c(c(C(F)(F)F)c1)CN(c1cccc(C3(C(F)(F)c4nncn4C)CC(F)(F)C3)c1)C2=O [Compound 432, (S)-2-(3-(1-(difluoro(4-methyl-4H-1,2,4-triazol-3-yl)methyl)-3,3-difluorocyclobutyl)phenyl)-6-((2-isopropyl-4-methylpiperazin-1-yl)methyl)-4-(trifluoromethyl)isoindolin-1-one] | 7.77 | 7.89 | (0.78x)
CC(C)[C@H]1CN(C)CCN1Cc1cc2c(c(C(F)(F)F)c1)CN(c1cccc(C3(C(F)(F)c4nncn4C)CC3)c1)C2=O [Compound 221, (S)-2-(3-(1-(Difluoro(4-methyl-4H-1,2,4-triazol-3-yl)methyl)cyclopropyl)phenyl)-6-((2-isopropyl-4-methylpiperazin-1-yl)methyl)-4-(trifluoromethyl)isoindolin-1-one] | 7.82 | 7.82 | 1.0x
CC(C)[C@@H]1CN(Cc2cc3c(c(C(F)(F)F)c2)CN(c2cccc(C4(Cc5nncn5C)CC(F)(F)C4)c2)C3=O)CCN1C [Compound 438, (R)-2-(3-(3,3-difluoro-1-((4-methyl-4H-1,2,4-triazol-3-yl)methyl)cyclobutyl)phenyl)-6-((3-isopropyl-4-methylpiperazin-1-yl)methyl)-4-(trifluoromethyl)isoindolin-1-one] | 7.39 | 7.49 | (0.80x)
Cn1cnnc1[C@H](F)C1(c2cccc(N3Cc4c(cc(CN5CCOCC5)cc4C(F)(F)F)C3=O)c2)COC1 [Compound 88, (R)-2-(3-(3-(fluoro(4-methyl-4H-1,2,4-triazol-3-yl)methyl)oxetan-3-yl)phenyl)-6-(morpholinomethyl)-4-(trifluoromethyl)isoindolin-1-one] | 7.00 | 6.68 | 2.1x
Cc1ccnn1CC1(c2cccc(N3Cc4c(cc(CN5CCN(C)C[C@@H]5C(C)C)cc4C(F)(F)F)C3=O)c2)COC1 [Compound 263, (S)-6-((2-isopropyl-4-methylpiperazin-1-yl)methyl)-2-(3-(3-((5-methyl-1H-pyrazol-1-yl)methyl)oxetan-3-yl)phenyl)-4-(trifluoromethyl)isoindolin-1-one] | 7.35 | 7.23 | (1.3x)
CC(C)C1(O)CN(Cc2cc3c(c(C(F)(F)F)c2)CN(c2cccc(C4([C@H](F)c5nncn5C)COC4)c2)C3=O)C1 [Compound 184, (S)-2-(3-(3-(fluoro(4-methyl-4H-1,2,4-triazol-3-yl)methyl)oxetan-3-yl)phenyl)-6-((3-hydroxy-3-isopropylazetidin-1-yl)methyl)-4-(trifluoromethyl)isoindolin-1-one] | 6.80 | 6.43 | 2.3x
Cn1cnnc1CC1(c2cc(-c3ccc4ccccc4c3)nc(N3Cc4c(cc(CNC5(C)CCC5)cc4C(F)(F)F)C3=O)c2)CCC1 [Compound 350, 2-(4-(1-((4-methyl-4H-1,2,4-triazol-3-yl)methyl)cyclobutyl)-6-(naphthalen-2-yl)pyridin-2-yl)-6-(((1-methylcyclobutyl)amino)methyl)-4-(trifluoromethyl)isoindolin-1-one] | 7.55 | 7.80 | (0.57x)
CO[C@@H]1CCN(Cc2cc3c(c(C(F)(F)F)c2)CN(c2cccc(C4([C@H](F)c5nncn5C)COC4)c2)C3=O)C1 [Compound 48, 2-(3-(3-((S)-fluoro(4-methyl-4H-1,2,4-triazol-3-yl)methyl)oxetan-3-yl)phenyl)-6-(((R)-3-methoxypyrrolidin-1-yl)methyl)-4-(trifluoromethyl)isoindolin-1-one] | 6.49 | 6.11 | 2.4x
Cn1cnnc1[C@@H](F)C1(c2cccc(N3Cc4c(cc(CN5CCC[C@H](CO)C5)cc4C(F)(F)F)C3=O)c2)COC1 [Compound 144, 2-(3-(3-((S)-fluoro(4-methyl-4H-1,2,4-triazol-3-yl)methyl)oxetan-3-yl)phenyl)-6-(((S)-3-(hydroxymethyl)piperidin-1-yl)methyl)-4-(trifluoromethyl)isoindolin-1-one] | 7.14 | 7.18 | 0.91x
CC(C)[C@H]1CN(C)CCN1Cc1cc2c(c(C(F)(F)F)c1)CN(c1cccc(C3(Cc4nncn4C)CC(F)(F)C3)c1)C2=O [Compound 215, (S)-2-(3-(3,3-difluoro-1-((4-methyl-4H-1,2,4-triazol-3-yl)methyl)cyclobutyl)phenyl)-6-((2-isopropyl-4-methylpiperazin-1-yl)methyl)-4-(trifluoromethyl)isoindolin-1-one] | 8.12 | 8.30 | 0.66x
Cn1cnnc1CC1(c2cccc(N3Cc4c(cc(CNC5(C)CCC5)c(F)c4C(F)(F)F)C3=O)c2)CC(F)(F)C1 [Compound 244, 2-(3-(3,3-difluoro-1-((4-methyl-4H-1,2,4-triazol-3-yl)methyl)cyclo-butyl)phenyl)-5-fluoro-6-(((1-methylcyclobutyl)amino)methyl)-4-(trifluoromethyl)isoindolin-1-one] | 7.82 | 7.85 | (0.97x)
Cn1cnnc1CC1(c2cccc(N3Cc4c(cc(CNC5(C)CCC5(C)C)cc4C(F)(F)F)C3=O)c2)CC(F)(F)C1 (centres unmarked) [Compound 355, 2-(3-(3,3-difluoro-1-((4-methyl-4H-1,2,4-triazol-3-yl)methyl)cyclobutyl)phenyl)-4-(trifluoromethyl)-6-(((1,2,2-trimethylcyclobutyl)amino)methyl) isoindin-1-one formate] | 7.85 | 8.04 | –
Cn1cnnc1CC1(c2cc(CC3CCCC3)nc(N3Cc4c(cccc4C(F)(F)F)C3=O)c2)COC1 [Compound 292, 2-(6-(cyclopentylmethyl)-4-(3-((4-methyl-4H-1,2,4-triazol-3-yl)methyl)oxetan-3-yl)pyridin-2-yl)-4-(trifluoromethyl)isoindolin-1-one] | 5.47 | 5.29 | (1.5x)
CO[C@@H]1CCN(Cc2cc3c(c(C(F)(F)F)c2)CN(c2cccc(C4([C@@H](F)c5nncn5C)COC4)c2)C3=O)C1 [Compound 47, 2-(3-(3-((R)-fluoro(4-methyl-4H-1,2,4-triazol-3-yl)methyl)oxetan-3-yl)phenyl)-6-(((R)-3-methoxypyrrolidin-1-yl)methyl)-4-(trifluoromethyl)isoindolin-1-one] | 7.00 | 6.74 | 1.8x
Cn1cnnc1[C@H](F)C1(c2cccc(N3Cc4c(cc(CN5CCC[C@@H]5CO)cc4C(F)(F)F)C3=O)c2)COC1 [Compound 147, 2-(3-(3-((R)-fluoro(4-methyl-4H-1,2,4-triazol-3-yl)methyl)oxetan-3-yl)phenyl)-6-(((R)-2-(hydroxymethyl)pyrrolidin-1-yl)methyl)-4-(trifluoromethyl)isoindolin-1-one] | 6.82 | 6.72 | 1.3x
CN1CCN(Cc2cc3c(c(C(F)(F)F)c2)CN(c2cccc(C4(Cc5nncn5C)CC(F)(F)C4)c2)C3=O)CC1 [Compound 411, 2-(3-(3,3-difluoro-1-((4-methyl-4H-1,2,4-triazol-3-yl)methyl)cyclobutyl)phenyl)-6-((4-methylpiperazin-1-yl)methyl)-4-(trifluoromethyl)isoindolin-1-one] | 7.32 | 7.37 | (0.88x)
CC[C@H]1CN(Cc2cc3c(c(C(F)(F)F)c2)CN(c2cccc(C4(Cc5nncn5C)CC(F)(F)C4)c2)C3=O)CCN1 [Compound 427, (S)-2-(3-(3,3-difluoro-1-((4-methyl-4H-1,2,4-triazol-3-yl)methyl)cyclobutyl)phenyl)-6-((3-ethylpiperazin-1-yl)methyl)-4-(trifluoromethyl)isoindolin-1-one] | 7.68 | 7.80 | (0.76x)
